Laboratory results: patent US20260240844A1, “INHIBITORS OF CHD1L AND USES THEREOF” (The Regents of the University of Colorado, a body corporate, priority 2023, published 2026)
Where two headings read alike, the source gives them in different places.

Experiments:
SW620 Parental cells = test: SW620 Parental cell viability, combination with chemotherapy; assay type: cell-based; conditions: Homo sapiens, SW-620, SW620 cells, read-out: IC50 5-FU
MiaPaca2 cells = test: MiaPaca2 cell viability, combination with chemotherapy; assay type: cell-based; conditions: for IC50: Homo sapiens, MIA PaCa-2, MiaPaca2 cells, read-out: IC50 5-FU; for calculated mean synergy score: MiaPaca2 cells
From the text: The cell viability assays and Bliss synergy analyses are as described above in Examples 1-9 and 11-12.

SW620 tumor organoids = test: cells; conditions: Homo sapiens
SUM149PT cells = test: Phosphatidylserine externalization, membrane integrity and DNA fragmentation; assay type: cell-based
Description: Phosphatidylserine externalization and membrane integrity—phosphatidylserine externalization and membrane integrity kinetics were analyzed using the RealTime-Glo™ Annexin V Apoptosis and Necrosis Assay (Promega, JA1012) according to the manufacturer's instructions. 8,000 cells were seeded per well in 96 well solid bottom white plates (Corning) in 100 μL and allowed to attach overnight. Then, 75 μL of media were removed, followed by the addition of 25 μL of the test compounds at 4× desired final concentration and 50 μL of the 2× detection reagent. Luminescence and fluorescence were measured overtime using an EnVision plate reader (PerkinElmer). No-cell and medium-only controls were used for background correction.
PARthanatos might be accompanied by other events also occurring during apoptosis or necrosis like mitochondrial depolarization, phosphatidylserine (PS) externalization, loss of membrane integrity and large-scale DNA fragmentation. To better characterize this mechanism, PS externalization and membrane integrity were studied using a real-time multiplex assay that monitors Annexin V binding to PS and simultaneous loss of cell membrane integrity with a membrane impermeable DNA binding dye. […] In contrast, CHD1Li caused a rapid and simultaneous increase of both when combined with SOC drugs, shifting the kinetics to a more non-apoptotic phenotype.

HCC1937 tumor organoids = test: Tumor organoid cytotoxicity, HCC1937; assay type: cell-based; conditions: Homo sapiens; HCC1937 (BRCA1 mutant HR-deficient); read-out: IC50, tumor organoid viability, single agent
Description: Tumor organoid culture—Cell lines were cultured as tumor organoids by seeding 2,000 to 5,000 cells/well into uncoated 96 well U-bottom Ultra Low Attachment Microplates (Corning) using their corresponding medium. Cell aggregation was then promoted by centrifugation of the plates for 15 min at 1,000 rpm followed by the addition of Matrigel (Corning) to a 2-5% final concentration. Tumor organoids were maintained under standard cell culture conditions for 72 h prior to drug treatment.
Organoids were then transferred to a white solid bottom 96 well plate and incubated with an equal volume of CellTiter Glo 3D reagent (Promega) for 45 min on a shaker at 400 rpm. Luminescence was recorded using the EnVision plate reader (PerkinElmer) and values normalized to the controls using GraphPad Prism.

[1] = tested on: SUM149 and MDA-MB-231 cells; test: DDR biomarkers in breast cancer cells; assay type: cell-based; conditions: 4 μM
From the text: (§1) Etoposide was used as a control to show upregulation of DDR pathway biomarkers.

[2] = tested on: SW620 M-phenotype mouse xenografts; test: Irinotecan drug resistant SW620 M-phenotype mouse xenografts; assay type: in vivo
PARP1 = PARP1 (Homo sapiens, UniProt P09874); test: PARP1 trapping (in situ subcellular fractionation, immunofluorescence)
Description: PARP1/2 and CHD1L trapping—PARP1, PARP2 and CHD1L trapping were assessed. SUM149PT cells were plated at a density of 20,000 cells per well into clear bottom black 96-well plates (PerkinElmer). […] After 4 h incubation, cell media was aspirated and cells were treated for 10 min at 4° C. with cold cytoskeleton (CSK) buffer (10 mM PIPES pH=6.8, 300 mM sucrose, 200 mM NaCl, 3 mM MgCl2) supplemented with 0.6% Triton X-100. […] PARP1 (anti-PARP1 antibody, 1:2000, O/N, 4° C.), PARP2 (anti-PARP2, 1:1000, O/N, 4° C.) and CHD1L (anti-CHD1L, 1:1000, O/N, 4° C.) primary antibodies were then added in antibody dilution buffer (2% BSA in PBS) and incubated O/N at 4° C.
To study the accumulation of bound PARP1/2 on chromatin, in situ subcellular fractioning of SUM149PT cells co-treated with 0.01% methyl methanesulfonate (MMS) and the drug of interest was used, followed by immunofluorescence. […] The cells were exposed to anti-CHD1L and anti-PARP1 fluorescent antibodies, and the cells were subsequently imaged.

Toxicity in mice = assay type: in vivo
From the text: Organs and blood were harvested and sent to the Colorado State University Flint Animal Cancer Center for histopathological analysis by an independent certified veterinary pathologist with expertise in cancer chemotherapy.

MCF-7 cells = test: Tumor organoid viability, MCF-7; assay type: cell-based; conditions: Homo sapiens, MCF7; MCF-7 (luminal breast cancer); read-out: IC50, tumor organoid viability, single agent
From the text: The tumor organoid viability assay is as described in Example 9.

[3] = tested on: γ-H2AX in SW620 or SUM149PT cells; test: DNA damage (γ-H2AX) immunofluorescence, Example 1; assay type: cell-based
From the text: The percentage of DNA damage for each single agent dose and combination was plotted on a contour map (FIG. 6A). Each shade on the contour map represents a range of % DNA damage where dark orange is 100% and white is 0% DNA damage.

[4] = tested on: SW620 cells and HCT116 cells; test: CHD1L-mediated TCF-transcription and CSC stemness (clonogenic colonies)
[5] = tested on: colon cancer mouse xenograft; test: Colon cancer mouse xenograft model; assay type: in vivo, mice
Description: The tumor volume was monitored over 30 days, and the tumor volume was measured after 30 days. The tumor was extracted from the mice, and the dimensions of the tumor were measured to provide a tumor volume in mm^3.
Key: PO=oral; IP=intraperitoneal; ANOVA significance: *: P<0.05; **: P<0.0003; ***: P<0.0001.

Colo679 cells = test: DDR biomarkers (pATM, RAD51, 53BP1, γ-H2AX) in Colo679 cells; assay type: cell-based; conditions: 4 μM
From the text: as §1

HCT116 tumor organoids = test: Viability of isolated EMT phenotype HCT116 tumor organoids; assay type: cell-based; conditions: Homo sapiens, HCT-116, 72 h

Sequence of PARP1 (P09874 whole entry): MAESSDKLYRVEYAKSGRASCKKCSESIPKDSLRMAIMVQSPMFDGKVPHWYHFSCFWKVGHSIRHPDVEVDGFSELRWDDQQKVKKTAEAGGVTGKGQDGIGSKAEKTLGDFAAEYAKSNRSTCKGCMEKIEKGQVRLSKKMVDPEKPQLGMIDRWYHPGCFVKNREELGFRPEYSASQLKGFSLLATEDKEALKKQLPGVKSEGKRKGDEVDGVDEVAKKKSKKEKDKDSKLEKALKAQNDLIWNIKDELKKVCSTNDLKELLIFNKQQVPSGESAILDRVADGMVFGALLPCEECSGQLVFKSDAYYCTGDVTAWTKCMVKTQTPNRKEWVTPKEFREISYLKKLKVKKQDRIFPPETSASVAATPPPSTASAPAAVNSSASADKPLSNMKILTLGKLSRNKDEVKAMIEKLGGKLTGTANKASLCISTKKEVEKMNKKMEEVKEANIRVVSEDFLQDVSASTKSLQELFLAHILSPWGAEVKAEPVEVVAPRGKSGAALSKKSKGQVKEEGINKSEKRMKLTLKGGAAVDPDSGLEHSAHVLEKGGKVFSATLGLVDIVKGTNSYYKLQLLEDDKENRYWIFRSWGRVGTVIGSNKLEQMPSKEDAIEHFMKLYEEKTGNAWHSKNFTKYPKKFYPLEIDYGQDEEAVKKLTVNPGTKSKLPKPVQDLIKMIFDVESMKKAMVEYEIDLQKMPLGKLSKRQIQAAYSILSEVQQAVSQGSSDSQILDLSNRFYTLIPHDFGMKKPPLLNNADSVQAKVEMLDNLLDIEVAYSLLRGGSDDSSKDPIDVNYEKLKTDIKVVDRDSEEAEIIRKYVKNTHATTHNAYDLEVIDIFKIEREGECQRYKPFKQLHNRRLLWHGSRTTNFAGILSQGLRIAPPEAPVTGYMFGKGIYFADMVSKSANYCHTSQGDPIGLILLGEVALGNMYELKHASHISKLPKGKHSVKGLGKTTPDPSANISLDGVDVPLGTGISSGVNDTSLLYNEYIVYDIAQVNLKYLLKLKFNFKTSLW

Structure (SMILES): O=c1[nH]cc(F)c(=O)[nH]1 [Compound 5-FU, 5-fluorouracil]
- IC50 (SW620 Parental cells; Compound 11 0 μM): 20.8 µM
- IC50 (SW620 Parental cells; Compound 11 2 μM): 59.5 µM
- IC50 (SW620 Parental cells; Compound 11 2.25 μM): 54.4 µM
- IC50 (SW620 Parental cells; Compound 11 2.5 μM): 47.7 µM
- IC50 (SW620 Parental cells; Compound 12 2 μM): 41.4 µM
- IC50 (SW620 Parental cells; Compound 12 2.25 μM): 23.9 µM
- IC50 (SW620 Parental cells; Compound 12 2.5 μM): 15.4 µM
- IC50 (MiaPaca2 cells; Compound 6.11 0 μM): 238 µM
- IC50 (MiaPaca2 cells; Compound 6.11 4 μM): 74.4 µM
- IC50 (MiaPaca2 cells; Compound 6.11 4.25 μM): 68.7 µM
- IC50 (MiaPaca2 cells; Compound 6.11 4.5 μM): 38.3 µM
- IC50 (MiaPaca2 cells; Compound 7 0 μM): 68.2 µM
- IC50 (MiaPaca2 cells; Compound 7 7 μM): 61.8 µM
- IC50 (MiaPaca2 cells; Compound 7 8 μM): 56.7 µM
- IC50 (MiaPaca2 cells; Compound 7 9 μM): 46.7 µM
- IC50 (MiaPaca2 cells; Compound 8 0 μM): 55.6 µM
- IC50 (MiaPaca2 cells; Compound 8 2 μM): 66.2 µM
- IC50 (MiaPaca2 cells; Compound 8 2.25 μM): 60.4 µM
- IC50 (MiaPaca2 cells; Compound 8 2.5 μM): 53.8 µM
- IC50 (MiaPaca2 cells; Compound 12 0 μM): 69.7 µM
- IC50 (MiaPaca2 cells; Compound 12 3.75 μM): 32 µM
- IC50 (MiaPaca2 cells; Compound 12 4 μM): 16.3 µM
- IC50 (MiaPaca2 cells; Compound 12 4.25 μM): 15.9 µM
- IC50 (MiaPaca2 cells; Compound 13 0 μM): 57.2 µM
- IC50 (MiaPaca2 cells; Compound 13 5 μM): 60.9 µM
- IC50 (MiaPaca2 cells; Compound 13 6 μM): 58.5 µM
- IC50 (MiaPaca2 cells; Compound 13 […]): 50.7 µM
- IC50 (SW620 tumor organoids; SW-620, 72 h, read-out: IC50 5FU, SW620 tumor organoids, 72 h, 5FU alone): > 200 µM
- IC50 (SW620 tumor organoids; SW-620, 72 h, read-out: IC50 5FU, SW620 tumor organoids, 72 h, + Compound 6.11 2.75 μM): 2.88 µM

Structure (SMILES): Cc1cc(Nc2ccc(NC(=O)Cc3cccs3)cc2)nc(N2CCCC2)n1 [Compound 6, N-(4-((6-methyl-2-(pyrrolidin-1-yl)pyrimidin-4-yl)amino)phenyl)-2-(thiophen-2-yl)acetamide]
- DNA fragmentation (Hoechst 33342) (SUM149PT cells): large-scale fragmentation of DNA
- IC50 (HCC1937 tumor organoids): 2.8 µM

Structure (SMILES): Cc1cc(Nc2ccc(NC(=O)Cc3cc(Br)cs3)cc2)nc(N2CCCC2)n1 [Compound 6.11, 2-(4-bromothiophen-2-yl)-N-(4-((6-methyl-2-(pyrrolidin-1-yl)pyrimidin-4-yl)amino)phenyl)acetamide]
- amounts of γ-H2AX and 53BP1 [1]: overall decreases in the amounts of γ-H2AX and 53BP1
- inhibition of tumor growth vs irinotecan alone ([2]; Compound 6.11 5 mg/kg IP 1×/day + irinotecan 50 mg/kg 1×/week): significantly more effective at inhibiting tumor growth
- increase in mouse survival ([2]; Compound 6.11 5 mg/kg IP 1×/day + irinotecan 50 mg/kg 1×/week vs irinotecan alone): about a month
- increase in mouse survival compared to irinotecan alone ([2]; low doses of Compound 6.11 combined with irinotecan, drug resistant CRC nude mouse xenografts): 30 days
- calculated mean synergy score (MiaPaca2 cells; combined with 5-FU): about 42
- calculated mean synergy score (MiaPaca2 cells; combined with SN-38): about 29
- increase in PARP1 trapping (PARP1; SUM149PT cells, 0.01% MMS, 4 h): 10 fold
- PARP1/2 trapping compared to olaparib alone (PARP1; non-trapping doses of Compound 6.11 combined with olaparib): significant increase in PARP1/2 trapping
- toxicity by complete blood count (CBC) panel and H&E histopathology of liver, heart, bone marrow (Toxicity in mice; mice, 100 mg/kg Compound 6.11 daily for 30 days): no toxicity
- toxicities (Toxicity in mice; mice, daily dosing up to 100 mg/kg, preliminary studies): no significant toxicities
- toxicity by CBC chemistry and histology of liver, heart, bone marrow (Toxicity in mice; nude mice, PO 100 mg/kg 1×/day 7-days/week, alone or combined with irinotecan): no toxicity
- IC50 (MCF-7 cells): ~1.8 µM
- IC50 (HCC1937 tumor organoids): ~2.8 µM
- mean synergy score (Bliss), DNA damage ([3]; combined with 5FU): 23
- mean synergy score (Bliss), DNA damage ([3]; combined with SN38): 24
- DNA damage (γ-H2AX) compared to vehicle ([3]; single agent): no significant DNA damage
- CHD1L-mediated TCF-transcription and CSC stemness [4]: dose dependent inhibition
- decrease in tumor volume ([5]; Compound 6.11 5 mg/kg daily IP + irinotecan 50 mg/kg 1×/week IP, after 20 days): approximately 50%
- metastatic tumor burden (bioluminescent imaging, % change total flux) ([5]; Compound 6.11 100 mg/kg 5×/week oral + irinotecan 15 mg/kg 1×/week IP): ~0
- survival ([5]; combination of Compound 6.11 and irinotecan): improved survival rates
- amount of 53BP1 (Colo679 cells): decrease the amount of 53BP1
- amount of RAD51 (Colo679 cells): increase the amount of RAD51
- amount of pATM (Colo679 cells): minimal effect
- γ-H2AX concentrations (Colo679 cells): decreased

Structure (SMILES): COc1cccc2c1C(=O)c1c(O)c3c(c(O)c1C2=O)C[C@@](O)(C(=O)CO)C[C@@H]3O[C@H]1C[C@H](N)[C@H](O)[C@H](C)O1 [doxorubicin]
- phosphatidylserine externalization / membrane integrity kinetics (SUM149PT cells; real-time Annexin V assay): apoptotic kinetic phenotype

Structure (SMILES): O=C(c1cc(Cc2n[nH]c(=O)c3ccccc23)ccc1F)N1CCN(C(=O)C2CC2)CC1 [olaparib]
- IC50 (HCT116 tumor organoids; combined with Compound 6, read-out: IC50 olaparib): ~30 µM
- IC50 (HCT116 tumor organoids; olaparib alone): ~600 µM
- IC50 (SW620 tumor organoids; SW-620, read-out: IC50 olaparib, SW620 tumor organoids, combined with Compound 6.11): 0.8 µM
- IC50 (SW620 tumor organoids; SW-620, read-out: IC50 olaparib, SW620 tumor organoids, olaparib alone): 282 µM
